Results on one molecule are retold here after patent US20060269594A1, “Liposomal antineoplastic drugs and uses thereof” (Inex Pharmaceuticals Corporation, priority 2000, published 2006).

The nature of series [1]: Myelosuppression and neutropenia studies (blood CBC and differential). It counts as in vivo, ICR mice. Conditions: 10 mg/kg i.v., day 3.
Protocol: Myelosuppression and neutropenia studies. […] Empty vesicles were administered as a control. CBC and differential analysis was performed at Central Labs for Veterinarians (Langley, BC) to quantify cellular levels, ratios and morphology.
Series [2] relates to MX-1 human breast carcinoma. In words: MX-1 human breast carcinoma xenograft (s.c.), efficacy and toxicity. Type of series: in vivo, nude mice.
Protocol: Tumor Models. […] Human MX-1 and LX-1 cell lines were obtained from the DCTD Tumor Repository in Frederick, Md. These cell lines were received as tumor fragments and were propagated in NCr nude mice by serial transplantation of 3×3 mm fragments. Experiments were not initiated until the cell lines had been through 3 passages in nude mice and the tumor lines were restarted when the passage number reached 10.
Efficacy Studies. […] For the MX-1 and LX-1 tumor models, tumor volume was determined by repeated perpendicular measurements of tumor dimensions and using the formula: Volume (mm^3)=(L×W^2)/2
For series [3] the following is noted: cited from earlier work.
The test system of series [4] is LX-1 human lung carcinoma. In words: LX-1 human lung carcinoma xenograft (s.c.), efficacy and toxicity. Type of series: in vivo, nude mice. As to conditions: LX-1, single dose; free at evaluated doses <30 mg/kg. From the text:
In the above formula, MTD is the maximum tolerated dose, defined as that dose that causes a mean weight loss of 20% in a group of animals; and MED is the minimal effective dose, defined as the dose that produces an optimal % T/C value of ≦40 in the solid tumor models or an % ILS of 50±10% in the survival models.

A short description of series [5]: Pharmacokinetic and in vivo leakage studies. Conditions: plasma, ICR mice; for AUC / Cmax / clearance: mouse, iv. As for the experimental part:
5. Pharmacokinetic and in vivo leakage studies. […] Two different drug-to-lipid ratios, i.e., 0.10 (w/w) and 0.02 (w/w), were used to examine the influence of drug-to-lipid ratio and lipid dose on drug leakage and PK behavior. Encapsulated topotecan was administered at 1 mg/kg (10 or 50 mg/kg lipid) and 5 mg/kg topotecan (50 mg/kg lipid). […] Total topotecan in blood was determined by a fluorescence assay preceded by precipitation of plasma proteins. Topotecan was quantified by spectrofluorimetry at an excitation (2.5 nm slit width) and emission wavelength (2.5 nm slit width) of 380 and 518 nm, respectively. Lipid levels in plasma were determined by liquid scintillation counting of the [^3H]-CHE label.

Setting [6] is: MX-1 s.c., single i.v. dose 5 mg/kg.

Molecules are shown by their SMILES. Read-outs that look alike come from different tables or passages of the source.

Regarding `CC[C@@]1(O)C(=O)OCc2c1cc1n(c2=O)Cc2cc3c(CN(C)C)c(O)ccc3nc2-1` [Free, 9-dimethylaminomethyl-10-hydroxy-camptothecin], the “differences in neutrophil, WBC and lymphocyte parameters” value in series [1] is “No significant differences”. The anti-tumor activity entry in series [2] (MX-1, q7dx3, 5 or 10 mg/kg/dose) was “little activity”. Moreover, the “% T/C (optimal, following final treatment)” value in series [2] (MX-1 s.c., q7dx3, 10 mg/kg/dose i.v.) worked out at 61%; in series [2] (setting [6]) it was 78%; in series [2] (MX-1 s.c., single i.v. dose 40 mg/kg) it was 24%. In addition, the “T − C (tumor growth delay to 500 mm^3)” value in series [2] (setting [6]) was 0.2 days. Besides, the LD10 in series [3] (qdx5 schedule, converted) is around 4.7 mg/kg/dose; in series [3] (single intravenous infusion in mice (Hycamtin product monograph)), 75 mg/M^2; in series [3] (single intravenous infusion in mice, converted) it was around 25 mg/kg. Also, the “anti-tumor activity in initial single dose studies” value in series [4] was “inactive”. The AUC in series [5] (1 mg/kg i.v.) is 1970 ng·h/mL; in series [5] (5 mg/kg i.v.), 2770 ng·h/mL. Also, the Cmax was 750 ng/mL in series [5] (1 mg/kg i.v.) and 2170 ng/mL in series [5] (5 mg/kg i.v.). Also, the clearance in series [5] (1 mg/kg i.v.) was 0.232 mL/min; in series [5] (5 mg/kg i.v.) it was 0.827 mL/min. Besides, the α1/2 is listed as 0.14 h in series [5] (1 mg/kg i.v.) and 0.26 h in series [5] (5 mg/kg i.v.).
